According to the Biogen ADME set (Fang et al. 2023):
≈ marks a conversion by molar mass, not a printed value.

Details: for aqueous solubility: pH 6.8

Row | SMILES | MDR1-MDCK efflux ratio | intrinsic clearance, human liver microsomes | intrinsic clearance, rat liver microsomes | fraction unbound, human plasma | fraction unbound, rat plasma | aqueous solubility
1 | c1ccc(Nc2nc(N3CCOCC3)nc(N3CCOCC3)n2)cc1 | 0.502 | 22.8 mL/min/kg | 48.3 mL/min/kg | – | – | –
2 | Cc1ncsc1C(=O)N1CCCCC1c1nc(N)ncc1-c1cccc(C(F)(F)F)c1 (centres undefined) | 9.17 | 373 mL/min/kg | 578 mL/min/kg | 0.0412 | 0.0729 | 14.3 µg/mL (≈ 32 µM)
3 | COc1cccc(C)c1C(=O)N(C)CCCn1cccn1 | 3.55 | 38 mL/min/kg | 500 mL/min/kg | – | – | –
4 | COc1ccc(-c2ccc(CNc3ccc(CN4CCC(C)CC4)cc3)cc2)cc1 | – | 124 mL/min/kg | 32.9 mL/min/kg | – | – | 14.7 µg/mL (≈ 36.7 µM)
5 | CN(C)CCN(Cc1ccccc1)C(=O)CCC(=O)Nc1ncc(-c2ccccc2)n1C | 38.2 | 92 mL/min/kg | 279 mL/min/kg | – | – | 59.1 µg/mL (≈ 136 µM)
6 | CC(C)c1nsc(N2CCC(Nc3cccnc3)CC2)n1 | 0.816 | 26.3 mL/min/kg | 403 mL/min/kg | – | – | –
7 | N#Cc1cccc(CN2CCC=C(CNC(=O)c3cccs3)C2)c1 | 2.25 | 56.7 mL/min/kg | 442 mL/min/kg | – | – | 52.2 µg/mL (≈ 155 µM)
8 | COc1nc(C#N)c(N2CCOCC2)o1 | – | – | – | – | – | 44.4 µg/mL (≈ 212 µM)
9 | CCCOc1ccn2c(C(C)=O)cc(-c3ccccc3S(C)(=O)=O)c2c1 | 1.33 | 56.1 mL/min/kg | 565 mL/min/kg | – | – | –
10 | CCc1nc(CNc2ccc(C#N)nc2)cs1 | 0.556 | ≤ 4.74 mL/min/kg | 109 mL/min/kg | – | – | –
11 | Cc1ccc(CCNc2nc(C)cc(C)n2)cn1 | – | 12.7 mL/min/kg | 192 mL/min/kg | – | – | –
12 | Cc1nnc(-c2cccc(C(=O)O)c2)o1 | – | ≤ 4.74 mL/min/kg | ≤ 10.7 mL/min/kg | – | – | 34.4 µg/mL (≈ 168 µM)
13 | CO[C@H]1[C@H](C2(C)O[C@@H]2CC=C(C)C)[C@]2(CC[C@H]1OC(=O)/C=C/c1ccc(OCCN(C)C)cc1)CO2 (some centres undefined) | – | 210 mL/min/kg | 795 mL/min/kg | – | – | –
14 | CC(C)c1cc(NC(=O)Cn2nc(-c3ccccc3)ccc2=O)[nH]n1 | – | – | – | – | – | 6.51 µg/mL (≈ 19.3 µM)
15 | O=C(Nc1ccc(CN2CCCCC2)cc1)c1ccnc2[nH]cnc12 | 9.09 | 7.73 mL/min/kg | – | 0.586 | – | –
16 | Cc1cc(C)c(-c2csc(NC(=O)Cn3cnnn3)n2)c(C)c1 | 7.69 | – | – | – | – | 0.12 µg/mL (≈ 0.365 µM)
17 | Fc1ccc(-c2nnc(CN3CCC(c4c[nH]c5ccccc45)CC3)o2)cc1 | – | 29.3 mL/min/kg | 230 mL/min/kg | – | – | 8 µg/mL (≈ 21.3 µM)
18 | Clc1cnc(NCC2(CN3CCCC3)CC2)nc1 | 0.734 | ≤ 4.74 mL/min/kg | 134 mL/min/kg | – | – | –
19 | Cn1cc(CCNC(=O)N2CCCc3c(F)cccc32)cn1 | 1.71 | 25.2 mL/min/kg | 230 mL/min/kg | – | – | 42.5 µg/mL (≈ 141 µM)
20 | O=C(CCc1cnn(-c2ccccc2)c1)N1CCC(n2c(=O)[nH]c3ccccc32)CC1 | – | 567 mL/min/kg | 3770 mL/min/kg | – | – | –
21 | O=c1c2ccccc2nc2n1CCN(Cc1ccc(F)cc1)CC2 | 0.471 | 37.1 mL/min/kg | 565 mL/min/kg | – | – | –

Row | SMILES | MDR1-MDCK efflux ratio | intrinsic clearance, human liver microsomes | intrinsic clearance, rat liver microsomes | fraction unbound, human plasma | fraction unbound, rat plasma | aqueous solubility
22 | COC(=O)Nc1nc2ccccc2[nH]1 | – | – | – | – | – | 8.05 µg/mL (≈ 42.1 µM)
23 | CCCN(C(=O)c1ccccc1N)C(C)C | – | ≤ 4.74 mL/min/kg | 342 mL/min/kg | – | – | –
24 | c1ccc(Cc2cccc3cc4c(nc23)OCCNC4)cc1 | – | 24.5 mL/min/kg | 1120 mL/min/kg | – | – | 47.8 µg/mL (≈ 165 µM)
25 | Nc1c(-c2ccc(F)cc2)ncn1Cc1ccccc1 | – | 14.6 mL/min/kg | 372 mL/min/kg | – | – | –
26 | O=C(CN1CCCC(c2cccc(Cc3cccc(F)c3)n2)C1)N1CCCC1 (centres undefined) | – | 76.2 mL/min/kg | 1140 mL/min/kg | 0.115 | 0.0899 | –
27 | Cc1cc(Nc2cc(N3CCN(C)CC3)nc(/C=C/c3ccccc3)n2)n[nH]1 | – | – | – | – | – | 0.2 µg/mL (≈ 0.533 µM)
28 | Cc1cc(C)nc(SCC(=O)N2c3ccccc3C(C)(c3ccc(Cl)cc3)CC2(C)C)n1 (centres undefined) | – | 1040 mL/min/kg | 2110 mL/min/kg | – | – | –
29 | CCC1(O)CN(c2ncnc3c2c(Br)nn3C)C1 | 0.85 | ≤ 4.74 mL/min/kg | 35.2 mL/min/kg | – | – | 49.1 µg/mL (≈ 157 µM)
30 | CCOC(=O)CCN1CCC=C(Br)C1 | 0.625 | – | – | – | – | –
31 | Cc1ccc(-c2noc3nc(C)cc(C(=O)O)c23)cc1 | 2.93 | ≤ 4.74 mL/min/kg | ≤ 10.7 mL/min/kg | – | – | 74.3 µg/mL (≈ 277 µM)
32 | COCCN(C)C(=O)c1ccc(-c2cccc(-c3noc(C)n3)c2)cc1 | 0.878 | 11.4 mL/min/kg | 75.2 mL/min/kg | – | – | –
33 | Nc1ncnc2c1ncn2[C@@H]1O[C@H](CO)[C@@H](O)[C@@H]1O | – | – | – | – | – | 54.7 µg/mL (≈ 205 µM)
34 | CSCC(=O)N1CCN(C(=O)CSC)C2(CCCCC2)C1 | 5.33 | 57.8 mL/min/kg | 868 mL/min/kg | – | – | 50.5 µg/mL (≈ 153 µM)
35 | Cc1cc(Nc2cnccn2)cc(C2CCCN(CC(=O)N3CCCC3)C2)n1 (centres undefined) | 26.7 | 5.43 mL/min/kg | 98.6 mL/min/kg | 0.439 | 0.429 | –
36 | COCC1(CNS(=O)(=O)c2ccc3[nH]cnc3c2)CCC1 | 32.8 | 16.2 mL/min/kg | 860 mL/min/kg | – | – | –
37 | CCOC(=O)c1cccnc1-c1ccc2[nH]ccc2c1 | 0.599 | 86.4 mL/min/kg | 695 mL/min/kg | – | – | 36.8 µg/mL (≈ 138 µM)
38 | CCCc1ncncc1C(=O)NCc1noc(C2CC2)n1 | 1.73 | ≤ 4.74 mL/min/kg | 112 mL/min/kg | – | – | –
39 | Cc1cccnc1NC(=O)c1csc(-c2ccccc2)n1 | – | 54 mL/min/kg | 462 mL/min/kg | – | – | 43.2 µg/mL (≈ 146 µM)
40 | Cc1nc(CN2C[C@@H](c3ccc4c(c3)OCO4)[C@@H]3[C@H]2C2CCN3CC2)co1 | 53.4 | 96.7 mL/min/kg | 205 mL/min/kg | – | – | 48.3 µg/mL (≈ 131 µM)
41 | COc1ncc(-c2cccc(N(C)C)c2)c(OC)n1 | – | 193 mL/min/kg | 2230 mL/min/kg | – | – | 24.9 µg/mL (≈ 96 µM)

Other lines, results leading:

Row | MDR1-MDCK efflux ratio | intrinsic clearance, human liver microsomes | intrinsic clearance, rat liver microsomes | fraction unbound, human plasma | fraction unbound, rat plasma | aqueous solubility | SMILES
42 | 0.709 | ≤ 4.74 mL/min/kg | ≤ 10.7 mL/min/kg | – | – | 38.9 µg/mL (≈ 163 µM) | Nc1nncc(-c2ccccc2OC(F)F)n1
43 | 0.316 | 120 mL/min/kg | 2530 mL/min/kg | – | – | 11.4 µg/mL (≈ 45.5 µM) | Cc1ccc2nc(-c3ccc(N(C)C)cc3)[nH]c2c1
44 | – | 31.9 mL/min/kg | 165 mL/min/kg | – | – | – | O=C(Nc1ccc(C(F)(F)F)cc1)c1ccccn1
45 | 38.3 | ≤ 4.74 mL/min/kg | ≤ 10.7 mL/min/kg | – | – | – | COC(c1ccccc1)(c1ccccc1)[C@H](Oc1nc(C)cc(C)n1)C(=O)O
46 | 1.28 | 236 mL/min/kg | 1200 mL/min/kg | 0.00826 | 0.0105 | 18.2 µg/mL (≈ 41.2 µM) | Cc1ncsc1C(=O)N1CCCCC1c1nc(N(C)C)ncc1-c1cccc(Cl)c1 (centres undefined)
47 | 1.35 | 9.2 mL/min/kg | 68.6 mL/min/kg | – | – | – | CCC(=O)Nc1ccc(F)c(NC(=O)N2CC=C(C)CC2)c1
48 | – | 8.94 mL/min/kg | 226 mL/min/kg | – | – | 34 µg/mL (≈ 95.4 µM) | Cn1cc(-c2nc(C(=O)Nc3ccc4c(c3)OCCCO4)cs2)cn1
49 | 0.434 | 11.7 mL/min/kg | 747 mL/min/kg | – | – | 25.5 µg/mL (≈ 119 µM) | NCc1cccnc1OCc1ccccc1
50 | 32.1 | 19.9 mL/min/kg | 691 mL/min/kg | – | – | – | CN(C)CCOc1cc(-c2cn[nH]c2)ccc1NC(=O)C1COc2ccccc2O1 (centres undefined)
51 | 4.9 | ≤ 4.74 mL/min/kg | 21.1 mL/min/kg | – | – | 25.2 µg/mL (≈ 81.2 µM) | c1ccc(COc2ccc(CNCC3CCNCC3)cc2)cc1
52 | – | ≤ 4.74 mL/min/kg | ≤ 10.7 mL/min/kg | – | – | 50.6 µg/mL (≈ 204 µM) | CC(=O)N1CCC(c2ccc(C(=O)O)cn2)CC1
53 | – | ≤ 4.74 mL/min/kg | 239 mL/min/kg | – | – | – | Cc1cc(C(=O)N(C)Cc2ccccc2C)[nH]n1
54 | – | 22.6 mL/min/kg | 3200 mL/min/kg | – | – | 18.4 µg/mL (≈ 61.3 µM) | c1ccc(-n2cnc3cc(NCc4ccccn4)ccc32)cc1
55 | 1.36 | ≤ 4.74 mL/min/kg | ≤ 10.7 mL/min/kg | – | – | 52.7 µg/mL (≈ 175 µM) | COCC(=O)N1CC[C@H](c2nnc(-c3ccc(C)cc3)o2)C1
56 | – | 81.8 mL/min/kg | 238 mL/min/kg | – | – | – | CN1CCN(C(=O)c2ccc3cc(CCNc4ncnc5ccc(C#N)cc45)ccc3c2)CC1
57 | 0.947 | 182 mL/min/kg | 2380 mL/min/kg | – | – | 37.3 µg/mL (≈ 119 µM) | CCCN(C(=O)c1c(CC)noc1C)C1Cc2ccccc2C1
58 | 2 | 118 mL/min/kg | 464 mL/min/kg | – | – | 17.1 µg/mL (≈ 46.4 µM) | O=C(NC1CCCC1)N1CCN(c2nccn3nc4c(c23)CCCC4)CC1
59 | 0.656 | 145 mL/min/kg | 1470 mL/min/kg | – | – | 29.6 µg/mL (≈ 86.2 µM) | c1ccc(-c2nsc(N3CCCN(c4nccs4)CC3)n2)cc1
60 | 0.476 | 113 mL/min/kg | 196 mL/min/kg | – | – | 31.5 µg/mL (≈ 136 µM) | CON(C)C(=O)c1cccc2c(C)c(C)[nH]c12
